From patent US5830909A (American Cyanamid Company, priority 1996, dated 1998) come the findings set out here.

One assay concerns the target T1, AII receptor (Rattus norvegicus, UniProt P25095).
T1 construct: adipose tissue from the epididymal and retroperitoneal depots is quickly excised; from tissue; host or cells: membranes of collagenase-isolated adipocytes from epididymal and retroperitoneal fat of male Sprague-Dawley rats
T1 sequence (P25095 1-359): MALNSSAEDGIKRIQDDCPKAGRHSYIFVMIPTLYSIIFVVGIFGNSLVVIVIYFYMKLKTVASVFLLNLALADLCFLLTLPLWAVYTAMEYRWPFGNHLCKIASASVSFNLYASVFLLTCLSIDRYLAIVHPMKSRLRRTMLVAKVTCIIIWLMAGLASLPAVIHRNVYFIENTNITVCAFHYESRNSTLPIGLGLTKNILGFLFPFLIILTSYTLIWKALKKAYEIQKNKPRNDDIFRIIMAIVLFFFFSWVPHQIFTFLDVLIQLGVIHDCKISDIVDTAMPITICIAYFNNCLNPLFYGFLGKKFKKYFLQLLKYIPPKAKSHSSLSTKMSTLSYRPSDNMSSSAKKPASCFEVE
Description: Displacement of 125I[Sar,Ile]AII binding in rat epididymal fat cell membranes. To be noted: rat epididymal fat cell membranes (Table 8). The text has this: The experimental design involves determining the binding characteristics of adipocyte membranes harvested from two different anatomic sites at three different ages. Male Sprague-Dawley rats (Charles River Laboratories, Wilmington, Mass.) are used at 40, 70 and 100 days of age. Rats are killed by carbon dioxide inhalation on the morning of the experiment, and adipose tissue from the epididymal and retroperitoneal depots is quickly excised and placed in cold saline. The spermatic artery and vein are removed from the epididymal fat, and brown fat deposits are dissected away from the retroperitoneal depot. The adipose tissue is weighed, minced into small pieces, and approximately 10 g each transferred to a flask containing 25 ml of Krebs-Ringer-bicarbonate buffer (KRB), 6 mM glucose and 50 mg of collagenase, pH 7.4. […] Intact adipocytes dissociated from the tissue pass freely into waiting tubes, while the undigested tissue is trapped on the screen. The tubes containing the adipocytes are washed an additional 4× with 20 ml each of cold Tris buffer (10 mM Tris HCl, pH 8.0) by first allowing the adipocytes to separate from the digestion medium by flotation, removing the infranatant through polyethylene tubing attached to a syringe, resuspending the cells in the Tris buffer, and repeating this procedure. Adipocyte membranes used for binding studies are prepared as follows. […] Following centrifugation, the fat cake and supernatant are carefully removed, and the pellet resuspended in 1 ml of Tris buffer. Protein content of the high speed pellet is determined, the resuspended protein is either assayed immediately or stored at -75° before binding assays are performed. […] The assay is initiated by the addition of the membrane protein, followed by incubation at 22° C. for 30 minutes in a slowly shaking water bath. Separation of bound from free radioactivity is achieved using any appropriate filtration apparatus. We use either a Millipore or Brandel model harvesting apparatus containing a Durapore or Whatman GF/B filter, followed by 6 additional rinses with 5 ml each of cold saline. The filters are placed in tubes, and radioactivity measured in a gamma scintillation counter programmed to correct for the half-life of the isotope. Using this experimental protocol, both the affinity (KD) and number of binding sites (Bmax) for angiotensin II on the adipocyte membrane can be calculated. The relative affinities of different anatomically distinct adipocyte membranes for a variety of peptide and nonpeptide antagonists can also be determined. […] Concentration ranges can be altered dependent upon the affinity of the particular antagonist for the fat cell membrane receptor.

Assay [1] is classed as in vivo, rat. The settings on record: 15 mg/kg once a day by gavage, two weeks. The protocol: (§1) Body weight and food intake are monitored daily. At the end of two weeks, the rats are sacrificed and tissues are weighed. Adipocyte membranes are prepared by collagenase digestion, homogenization and centrfugation. […] Of the organs sampled, the combined largest relative and quantitative change in weight was in the adipose tissue.

The next assay relates to adipocyte AII receptor. Nature of the assay: Epididymal adipocyte AII receptor binding (Bmax) after two weeks oral treatment. It counts as in vivo, rat. To be noted: 4 rats/group, oral once daily for 2 weeks. The protocol: Body weight and food intake are monitored daily. At the end of two weeks, the rats are sacrificed and tissues are weighed. Adipocyte membranes are prepared by collagenase digestion, homogenization and centrfugation.
Binding is initiated by suspending the adipocyte membranes in 0.25% BSA buffer (bovine serum albumin, 50 mM Tris HCl, 5 mM MgCl2,pH 7.4) to a final concentration of 5 ug protein/10 ul buffer. […] The filters are placed in tubes, and radioactivity measured in a gamma scintillation counter programmed to correct for the half-life of the isotope. Using this experimental protocol, both the affinity (KD) and number of binding sites (Bmax) for angiotensin II on the adipocyte membrane can be calculated.

A further assay deals with epididymal adipocytes. Description: Epididymal adipocyte cell volume after two weeks oral treatment. The assay is classed as in vivo, rat. The settings on record: 4 rats/group, oral once daily for 2 weeks. The procedure:
as §1

[2] abbreviates: read-out: Epididymal IC50 for displacement of 125I[Sar,Ile]AII binding.
Where [3] appears, read: Epididymal IC50 for displacement of 125I[Sar,Ile]AII binding.

Structures can show the parent of a compound that is named as a salt. Where two headings read alike, the source gives them in different places.

In the case of “2-butyl-3,5,7,8-tetrahydro-3-[[2'-(1H-tetrazol-5-yl)[1,1'-biphenyl]-4-yl]methyl]-pyrido[4,3-d]pyrimidin-6(4H)-carboxylic acid phenylmethyl ester”, the concentration for half-maximal inhibition (IC50) at AII receptor (setting [2]) was 17.9 nM.
The same measure, in the same setting: under “2-butyl-5,6,7,8-tetrahydro-6-(2-hydroxy-2-methyl-1-oxopropyl)-3-[[2'-(1H-tetrazol-5-yl)[1,1'-biphenyl]-4-yl]methyl]-4(3H)-quinazolinone” stands 1.36 nM.
At AII receptor (setting [3]), `CCCCc1nc2ccc(C3(C(=O)OC)CC4CCCN4O3)cc2c(=O)n1Cc1ccc(-c2ccccc2-c2nnn[nH]2)cc1` (mixture of isomers) [trans-(+/-)-2-[2-butyl-3,4-dihydro-4-oxo-3-[[2'-(1H-tetrazol-5-yl)[1,1'-biphenyl]-4-yl]methyl]-6-quinazolinyl]hexahydropyrrolo[1,2-b]isoxazole-2-carboxylic acid methyl ester monohydro] registered an IC50 of 23.5 nM.
On to `CCCCc1nc2ccc(C3(C)NN[C@H]4C(=O)N(C)C(=O)[C@H]43)cc2c(=O)n1Cc1ccc(-c2ccccc2-c2nn[nH]n2)cc1` (relative stereo) [(3aα,6aα)-3-[2-butyl-3,4-dihydro-4-oxo-3-[[2'-(1H-tetrazol-5-yl)[1,1'-biphenyl]-4-yl]methyl]-6-quinazolinyl]-2,3,3a,6a-tetrahydro-3,5-dimethylpyrrolo[3,4-c]pyrazole-4,6-(1H,5H)-dione], for which the IC50 on AII receptor (setting [2]) came to 550 nM.
Compound `CCCCc1nc2ccc(C(C)(O)C3CCN(C)C3=O)cc2c(=O)n1Cc1ccc(-c2ccccc2-c2nn[nH]n2)cc1` (single isomer, unassigned) [2-butyl-6-[1-hydroxy-1-(1-methyl-2-oxo-3-pyrrolidinyl)ethyl]-3-[[2'-(1H-tetrazol-5-yl)[1,1'-biphenyl]-4-yl]methyl]-4(3H)-quinazolinone isomer 1] showed an IC50 at AII receptor (setting [3]) of 7.9 nM.
Still for that read-out and setting: under `CCCCc1nc2ccc(C(O)C3CCCS3(=O)=O)cc2c(=O)n1Cc1ccc(-c2ccccc2-c2nn[nH]n2)cc1` (single isomer, unassigned) [2-butyl-6-[hydroxy(tetrahydro-2-thienyl)methyl]-3-[[2'-(1H-tetrazol-5-yl)[1,1'-biphenyl]-4-yl]methyl]-4(3H)-quinazolinone S,S-dioxide isomer 1] stands 1.68 nM; under `CCCCc1nc2ccc(C(O)C3CCCS3(=O)=O)cc2c(=O)n1Cc1ccc(-c2ccccc2-c2nn[nH]n2)cc1` (single isomer, unassigned) [2-butyl-6-[hydroxy(tetrahydro-2-thienyl)methyl]-3-[[2'-(1H-tetrazol-5-yl)[1,1'-biphenyl]-4-yl]methyl]-4(3H)-quinazolinone S,S-dioxide isomer 2], 3.14 nM.
Still for that read-out and setting: for `CCCCc1nc2ccc(C3=NN4CCCCC4C3)cc2c(=O)n1Cc1ccc(-c2ccccc2-c2nn[nH]n2)cc1` (centres unmarked) [2-butyl-6-(3,3a,4,5,6,7-hexahydropyrazolo[1,5-a]pyridin-2-yl)-3-[[2'-(1H-tetrazol-5-yl)[1,1'-biphenyl]-4-yl]methyl]-4(3H)-quinazolinone] the value was 86.7 nM.
On the same count and under the same terms, under `CCCCc1nc2ccc(COc3ccccc3)cc2c(=O)n1Cc1ccc(-c2ccccc2-c2nnn[nH]2)cc1` [2-butyl-6-(phenoxymethyl)-3-[[2'-(1H-tetrazol-5-yl)[1,1'-biphenyl]-4-yl]methyl]-4(3H)-quinazolinone] stands 163 nM; under `CCCCc1nc2ccc(C3CC(c4ccc(C)cc4)=NO3)cc2c(=O)n1Cc1ccc(-c2ccccc2-c2nnn[nH]2)cc1` (centres unmarked) [2-butyl-6-[4,5-dihydro-3-(4-methylphenyl)-5-isoxazolyl]-3-[[2'-(1H-tetrazol-5-yl)[1,1'-biphenyl]-4-yl]methyl]-4(3H)-quinazolinone], 126 nM.
Take `CCCCc1nc2ccc(COc3ccccn3)cc2c(=O)n1Cc1ccc(-c2ccccc2-c2nn[nH]n2)cc1` [2-butyl-6-[(2-pyridinyloxy)methyl]-3-[[2'-(1H-tetrazol-5-yl)[1,1'-biphenyl]-4-yl]methyl]-4(3H)-quinazolinone hydrochloride]: the concentration for half-maximal inhibition (IC50) at AII receptor (setting [3]) was 17.2 nM.
The same measure, in the same setting: under `CCc1nc2c(C)cc(C)nc2n1Cc1ccc(-c2ccccc2-c2nnn[nH]2)cc1` [2-ethyl-5,7-dimethyl-3-[[2'-(1H-tetrazol-5-yl)[1,1-biphenyl]-4-yl]methyl]-3H-imidazo[4,5-b]pyridine, reference compound] stands 2.44 nM.
As for `CCCCc1nc(Cl)c(CO)n1Cc1ccc(-c2ccccc2-c2nnn[nH]2)cc1` [2-n-butyl-4-chloro-5-hydroxymethyl-1-[(2'-(1H-tetrazol-5-yl)biphenyl-4-yl)methyl]imidazole, reference compound], in assay [1], the “Avg. Daily Food Intake, % Change From Control” value is -8%; the “Avg. Weight Gain, % Change From Control” value is -38%; the “Epididymal Fat Weight, % Change From Control” value is on record as -21%; the “Final Body Weight, % Change From Control” value is reported as -5%. In assay [1], the “Retroperitoneal Fat Weight, % Change From Control” value is given as -16%. In assay [1] (n = 6), the “Avg. Daily Food Intake” value worked out at 30.1 g, the “Avg. Weight Gain” value is listed as 35 g, the “Epididymal Fat Weight” value is recorded as 4.10 g and the “Final Body Weight” value is 431 g. Also, in assay [1] (n = 6), the “Retroperitoneal Fat Weight” value is recorded as 4.10 g. The “Bmax, epididymal adipocyte AII receptor binding” value with adipocyte AII receptor was determined as 24.7 fmole/mg protein. Further, the “Adipocyte Cell Volume” value with epididymal adipocytes is on record as 163 p1.
`CCCCc1nc2ccc(C3(C)CC(C(=O)OCC)=NO3)cc2c(=O)n1Cc1ccc(-c2ccccc2-c2nn[nH]n2)cc1` (centres unmarked) [5-[2-butyl-3,4-dihydro-4-oxo-3-[[2'-(1H-tetrazol-5-yl)[1,1'-biphenyl]-4-yl]methyl]-6-quinazolinyl]-4,5-dihyrdro-5-methyl-3-isoxazolecarboxylic acid ethyl ester] returned an IC50 on AII receptor (setting [3]) of 35.7 nM.
Same read-out and setting: for `CCCc1nc(C)n2[nH]c(=O)nc2c1Cc1ccc(-c2ccccc2-c2nnn[nH]2)cc1` [5-methyl-7-propyl-8-[(2'-(1H-tetrazol-5-yl)biphenyl-4-yl)methyl]-1,2,4-triazolo[1,5-c]pyrimidin-2(3H)-one, reference compound] the value was 5.63 nM; for `CCCCc1nc2ccc([C@H]3C[C@@H](CO)ON3C)cc2c(=O)n1Cc1ccc(-c2ccccc2-c2nnn[nH]2)cc1` [(3R-cis)-2-butyl-6-[5-(hydroxymethyl)-2-methyl-3-isoxazolidinyl]-3-[[2'-(1H-tetrazol-5-yl)[1,1'-biphenyl-4-yl]methyl]-4(3H)-quinazolinone], 8.2 nM; for `CCCCc1nc2ccc([C@@H]3C[C@@H](CO)ON3C)cc2c(=O)n1Cc1ccc(-c2ccccc2-c2nnn[nH]2)cc1` [(3S-trans)-2-butyl-6-[5-(hydroxymethyl)-2-methyl-3-isoxazolidinyl]-3-[[2'-(1H-tetrazol-5-yl)[1,1'-biphenyl]-4-yl]methyl]-4(3H)-quinazolinone], 18.6 nM.
Turning to `CCCCc1nc2ccc([C@@H]3C[C@@H]4[C@H](O3)ON3[C@H]4CCC3(C)C)cc2c(=O)n1Cc1ccc(-c2ccccc2-c2nn[nH]n2)cc1` [[2S-(2α,3aα,3bβ,8aα)]-2-butyl-6-(6,6'-dimethyloctahydrofuro[3,2-d]pyrrolo[1,2-d]isoxazol-2-yl)-3-[[2'-(1H-tetrazol-5-yl)[1,1'-biphenyl]-4-yl]methyl]-4(3H)-quinazolinone], the IC50 on AII receptor (setting [2]) worked out at 14.1 nM.
